Experiments:
MAP kinase = MAP kinase phosphorylation in HUVE cells (immunoblot); type: cell-based, human; conditions: non-serum starved HUVE cells
Excerpt: (§1) Cell lysates were used to immunoprecipitate EphA2 as described above or probed by immunoblotting with anti-phospho-p44/p42 MAPK antibody (Cell Signaling Technology, Beverly, MA) followed by an anti-mouse IgG peroxidase-conjugated antibody (Amersham) and re-probed with an anti-ERK2 antibody (Santa Cruz Biotechnology, Santa Cruz, CA) followed by a secondary anti-rabbit IgG peroxidase-conjugated antibody (Amersham). Erk2 (p42 MAP kinase) is the major phosphorylated form present. EphA2 was immunoprecipitated (IP) and probed by immunoblotting with anti-ghosphotyrosine (PTyr) or anti-EphA2 antibodies.

endogenous EphA4 = molecular target: T1, endogenous EphA4 (Mus musculus, UniProt Q03137); assay: ephrin-A3 Fc induced EphA4 tyrosine phosphorylation in hippocampal slices (immunoblot); type: cell-based; conditions: peptide together with ephrin-A3 Fc, micromolar concentrations
T1 construct: tyrosine phosphorylation of endogenous EphA4; from tissue; host or cells: mouse hippocampal slices
T1 sequence (Q03137 20-986): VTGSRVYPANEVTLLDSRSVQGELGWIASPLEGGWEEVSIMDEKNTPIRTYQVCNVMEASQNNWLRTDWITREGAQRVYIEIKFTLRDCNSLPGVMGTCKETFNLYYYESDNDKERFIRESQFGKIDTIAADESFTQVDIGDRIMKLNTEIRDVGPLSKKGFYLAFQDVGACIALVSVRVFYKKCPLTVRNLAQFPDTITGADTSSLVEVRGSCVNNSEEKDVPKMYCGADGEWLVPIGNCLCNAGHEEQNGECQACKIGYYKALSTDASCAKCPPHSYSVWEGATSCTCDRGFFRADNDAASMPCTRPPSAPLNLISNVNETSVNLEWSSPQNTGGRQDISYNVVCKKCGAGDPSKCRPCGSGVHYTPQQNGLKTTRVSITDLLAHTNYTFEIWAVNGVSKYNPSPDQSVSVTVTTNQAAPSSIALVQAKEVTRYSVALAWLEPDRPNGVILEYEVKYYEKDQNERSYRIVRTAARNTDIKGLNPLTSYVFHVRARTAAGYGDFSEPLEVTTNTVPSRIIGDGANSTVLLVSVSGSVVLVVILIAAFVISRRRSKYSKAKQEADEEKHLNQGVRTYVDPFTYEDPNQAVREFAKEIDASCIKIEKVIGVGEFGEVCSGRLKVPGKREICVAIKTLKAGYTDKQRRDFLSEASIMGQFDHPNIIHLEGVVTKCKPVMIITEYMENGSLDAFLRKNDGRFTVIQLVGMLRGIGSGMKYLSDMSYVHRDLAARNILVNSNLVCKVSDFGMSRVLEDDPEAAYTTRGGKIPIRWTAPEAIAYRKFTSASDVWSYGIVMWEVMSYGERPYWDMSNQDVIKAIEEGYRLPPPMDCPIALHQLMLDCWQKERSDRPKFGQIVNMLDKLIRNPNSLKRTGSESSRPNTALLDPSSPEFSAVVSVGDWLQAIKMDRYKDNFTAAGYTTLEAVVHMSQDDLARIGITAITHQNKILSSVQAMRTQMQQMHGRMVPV

neural crest cells [1] = assay: neural crest cell migration assay in trunk explants; type: cell-based, Chick; conditions: 24 hours, 13 µM KYL peptide, 10 µg/ml EphA4-Fc
Protocol: (§2) In this example to address whether the EphA4-binding peptides can inhibit endogenous ephrin-EphA4 physiological function, a neural crest cell migration assay (McLennan, R. & Krull, C.E. 2002 Gene Expr 10:295-305) was utilized. […] The migration of neural crest cells was determined by staining for HNK-1 for neural crest cells and ephrin-B1 to label the caudal sclerotome. […] Neural crest cells migrated properly into the rostral sclerotome in explants treated with control Fc.

EphA2 = EphA2 tyrosine phosphorylation and MAP kinase signaling in HUVE cells; type: cell-based, human; conditions: in the absence of ephrin
Protocol: Ephin-A1 Fc was cross-linked by preincubation with 0.2 µg/ml anti-human fc antibodies for 30 minutes on ice. After stimulation, the cells were lysed in modified RIPA buffer {Ogawa, K. et al. 2000 Oncogene 19: 6043-6052). Cell lysates were immunoprecipitated with 5 µg anti-EphA2 antibody (Upstate, Lake Placid, NY), separated by SDS polyacrylamide gel electrophoresis and probed by immunobloting with peroxidase-conjugated anti-phosphotyrosine antibody (Transduction Laboratories, San Diego, CA) or anti-EphA2 antibody followed by a secondary anti-mouse IgG peroxidase-conjugated antibody (Amersham).
as §1

neural crest cells [2] = assay: Neural crest cell migration assay in trunk explants; type: cell-based; conditions: 13 µM peptide, 24 hours, chick trunk explants
Protocol: as §2

With `CSCC[C@H](NC(=O)[C@H](CCSC)NC(=O)[C@@H]1CCCN1C(=O)[C@@H](NC(=O)[C@H](CO)NC(=O)[C@H](CC(=O)O)NC(=O)[C@@H]1CCCN1C(=O)[C@H](Cc1ccc(O)cc1)NC(=O)[C@H](C)NC(=O)[C@H](CO)NC(=O)[C@@H](N)Cc1ccc(O)cc1)C(C)C)C(=O)N[C@@H](CO)C(=O)NCC(=O)N[C@@H](CO)C(=O)NCC(=O)N[C@@H](CO)C(=O)N[C@@H](CCCCNC(=O)CCCC[C@@H]1SC[C@@H]2NC(=O)N[C@@H]21)C(=O)O` [YSA peptide] as the molecule, how does the MAP kinase activation (MAP kinase) read?
Its MAP kinase activation is “suppresses MAP kinase activation”.

For VTMEAINLAFPG, which “ephrin-A3-induced tyrosine phosphorylation of endogenous EphA4” value (endogenous EphA4) is on record?
The value was “antagonize”.

Which “ephrin-A3-induced tyrosine phosphorylation of endogenous EphA4” value (endogenous EphA4) does the source give for KYLPYWPVLSSL here?
Its value is “antagonize”.

And the “ephrin-A3-induced tyrosine phosphorylation of endogenous EphA4” value (endogenous EphA4; listed as KYL peptide)?
Its value is “lower concentrations than the APY and VTM peptides”.

And the “migration of neural crest cells” value (neural crest cells [1])?
Its value is “ectopic migration of neural crest cells into the caudal half-selerotome”.

With `CSCC[C@H](NC(=O)[C@H](CCSC)NC(=O)[C@@H]1CCCN1C(=O)[C@@H](NC(=O)[C@H](CO)NC(=O)[C@H](CC(=O)O)NC(=O)[C@@H]1CCCN1C(=O)[C@H](Cc1ccc(O)cc1)NC(=O)[C@H](C)NC(=O)[C@H](CO)NC(=O)[C@@H](N)Cc1ccc(O)cc1)C(C)C)C(=O)N[C@@H](CO)C(=O)O` [YSA peptide] as the molecule, how does the “functional effect on EphA2 (tyrosine phosphorylation, suppression of MAP kinase)” value (EphA2) read?
Its value is “agonist for EphA2”.

With KYLPYWPVLSSL [KYL peptide] as the molecule, how does the “migration of neural crest cells” value (neural crest cells [2]) read?
Its value is “ectopic migration of neural crest cells into the caudal half-selerotome”.
